Results taken from ChEMBL document CHEMBL6121019, “Design, synthesis and biological evaluation of bisnoralcohol derivatives as novel IRF4 inhibitors for the treatment of multiple myeloma” (Eur J Med Chem, 2025).

Assays:
[1] = biological target: T1, Interferon regulatory factor 4 (Homo sapiens, UniProt Q15306); assay: Inhibition of IRF4 (unknown origin) incubated for 1 hr by fluorescence polarization assay
T1 sequence (Q15306 whole entry): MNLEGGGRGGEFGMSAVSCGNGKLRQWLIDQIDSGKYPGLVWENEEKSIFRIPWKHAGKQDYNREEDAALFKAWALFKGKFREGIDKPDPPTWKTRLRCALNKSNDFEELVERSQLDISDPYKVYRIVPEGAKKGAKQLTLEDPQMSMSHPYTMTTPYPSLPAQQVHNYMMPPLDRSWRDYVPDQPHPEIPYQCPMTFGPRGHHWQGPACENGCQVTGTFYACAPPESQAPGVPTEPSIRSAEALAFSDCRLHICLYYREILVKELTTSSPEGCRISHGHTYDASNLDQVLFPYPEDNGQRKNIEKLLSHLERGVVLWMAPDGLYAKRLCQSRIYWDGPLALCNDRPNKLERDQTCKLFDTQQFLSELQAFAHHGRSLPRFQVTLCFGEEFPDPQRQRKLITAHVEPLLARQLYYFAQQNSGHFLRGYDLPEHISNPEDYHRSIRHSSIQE

[2] = Selectivity ratio IC50 for human RPMI-8226 cells to IC50 for human NCI-H929 cells; assay type: toxicity
[3] = test system: RPMI-8226; assay: Antiproliferative activity against human RPMI-8226 cells assessed as inhibition of cell viability measured after 72 hrs by MTS assay; assay type: functional, cell-based; settings: RPMI-8226, 72 h
[4] = Antiproliferative activity against human MM1.R cells assessed as inhibition of cell viability measured after 72 hrs by MTS assay; assay type: functional, cell-based; settings: MM.1R
[5] = test system: NCI-H929; assay: Antiproliferative activity against human NCI-H929 cells assessed as inhibition of cell viability measured after 72 hrs by MTS assay; assay type: functional, cell-based; settings: NCI-H929, 72 h
[6] = Antiproliferative activity against human HAF cells assessed as inhibition of cell viability measured after 72 hrs by MTS assay; assay type: toxicity, cell-based
[7] = Antiproliferative activity against human HaCaT cells assessed as inhibition of cell viability measured after 72 hrs by MTS assay; assay type: toxicity, cell-based
[8] = Selectivity ratio IC50 for human RPMI-8226 cells to IC50 for human MM1.R cells; assay type: toxicity

Row | Structure (SMILES) | IC50 [1] [µM] | other results
1 | C[C@H](C(=O)O)[C@H]1CC[C@H]2[C@@H]3CC=C4C(C)(C)C(=O)C(C#N)=C[C@]4(C)[C@H]3CC[C@]12C | > 20 | –
2 | C[C@H](C(=O)Nc1ccc(Cl)cc1)[C@H]1CC[C@H]2[C@@H]3C(=O)C=C4C(C)(C)C(=O)C(C#N)=C[C@]4(C)[C@H]3CC[C@]12C | > 20 | –
3 | C[C@H](C(=O)Nc1ccc(C(F)(F)F)cc1)[C@H]1CC[C@H]2[C@@H]3C(=O)C=C4C(C)(C)C(=O)C(C#N)=C[C@]4(C)[C@H]3CC[C@]12C | > 20 | –
4 | COC(=O)[C@@H](C)[C@H]1CC[C@H]2[C@@H]3C(=O)C=C4C(C)(C)C(=O)C(C#N)=C[C@]4(C)[C@H]3CC[C@]12C | > 20 | –
5 | C[C@H](C(=O)NC1CCCC1)[C@H]1CC[C@H]2[C@@H]3C(=O)C=C4C(C)(C)C(=O)C(C#N)=C[C@]4(C)[C@H]3CC[C@]12C | > 20 | –
6 | C[C@H](CO)[C@H]1CC[C@H]2[C@@H]3CCC4=CC(=O)CC[C@]4(C)[C@H]3CC[C@]12C | > 20 | –
7 | C[C@H](C(=O)Oc1ccc(Cl)cc1)[C@H]1CC[C@H]2[C@@H]3C(=O)C=C4C(C)(C)C(=O)C(C#N)=C[C@]4(C)[C@H]3CC[C@]12C | > 20 | –
8 | C#CCNC(=O)[C@@H](C)[C@H]1CC[C@H]2[C@@H]3C(=O)C=C4C(C)(C)C(=O)C(C#N)=C[C@]4(C)[C@H]3CC[C@]12C | > 20 | –
9 | C[C@H](C(=O)OC1CCCC1)[C@H]1CC[C@H]2[C@@H]3C(=O)C=C4C(C)(C)C(=O)C(C#N)=C[C@]4(C)[C@H]3CC[C@]12C | > 20 | –
10 | COc1ccc(NC(=O)CCC[C@@H](C)[C@H]2CC[C@H]3[C@@H]4C(=O)C=C5C(C)(C)C(=O)C(C#N)=C[C@]5(C)[C@H]4CC[C@]23C)cc1 | > 20 | –
11 | CCCCc1ccc(NC(=O)[C@@H](C)[C@H]2CC[C@H]3[C@@H]4C(=O)C=C5C(C)(C)C(=O)C(C#N)=C[C@]5(C)[C@H]4CC[C@]23C)cc1 | > 20 | –
12 | CCCOC(=O)[C@@H](C)[C@H]1CC[C@H]2[C@@H]3C(=O)C=C4C(C)(C)C(=O)C(C#N)=C[C@]4(C)[C@H]3CC[C@]12C | > 20 | –
13 | CCCNC(=O)[C@@H](C)[C@H]1CC[C@H]2[C@@H]3C(=O)C=C4C(C)(C)C(=O)C(C#N)=C[C@]4(C)[C@H]3CC[C@]12C | > 20 | –
14 | CCOC(=O)[C@@H](C)[C@H]1CC[C@H]2[C@@H]3C(=O)C=C4C(C)(C)C(=O)C(C#N)=C[C@]4(C)[C@H]3CC[C@]12C | > 20 | –
15 | C[C@H](C(=O)Oc1ccc(C(F)(F)F)cc1)[C@H]1CC[C@H]2[C@@H]3C(=O)C=C4C(C)(C)C(=O)C(C#N)=C[C@]4(C)[C@H]3CC[C@]12C | > 20 | –
16 | C[C@H](C(=O)O)[C@H]1CC[C@H]2[C@@H]3C(=O)C=C4C(C)(C)C(=O)C=C[C@]4(C)[C@H]3CC[C@]12C | > 20 | –
17 | C[C@H](CO)[C@H]1CC[C@H]2[C@@H]3C(=O)C=C4C(C)(C)C(=O)C(C#N)=C[C@]4(C)[C@H]3CC[C@]12C | > 20 | –
18 | CCNC(=O)[C@@H](C)[C@H]1CC[C@H]2[C@@H]3C(=O)C=C4C(C)(C)C(=O)C(C#N)=C[C@]4(C)[C@H]3CC[C@]12C | > 20 | –
19 | C=CCNC(=O)[C@@H](C)[C@H]1CC[C@H]2[C@@H]3C(=O)C=C4C(C)(C)C(=O)C(C#N)=C[C@]4(C)[C@H]3CC[C@]12C | > 20 | –
20 | C[C@H](C(=O)OC1CCCCC1)[C@H]1CC[C@H]2[C@@H]3C(=O)C=C4C(C)(C)C(=O)C(C#N)=C[C@]4(C)[C@H]3CC[C@]12C | > 20 | –

These reach a lower IC50 [1]. Values come first.

Row | IC50 [1] [µM] | Structure (SMILES) | other results
21 | 18.8 | COc1ccc(NC(=O)[C@@H](C)[C@H]2CC[C@H]3[C@@H]4C(=O)C=C5C(C)(C)C(=O)C(C#N)=C[C@]5(C)[C@H]4CC[C@]23C)cc1OC | –
22 | 17.9 | COc1ccc(NC(=O)CC[C@@H](C)[C@H]2CC[C@H]3[C@@H]4C(=O)C=C5C(C)(C)C(=O)C(C#N)=C[C@]5(C)[C@H]4CC[C@]23C)cc1 | –
23 | 16.6 | CCCCOc1ccc(NC(=O)[C@@H](C)[C@H]2CC[C@H]3[C@@H]4C(=O)C=C5C(C)(C)C(=O)C(C#N)=C[C@]5(C)[C@H]4CC[C@]23C)cc1 | –
24 | 16.4 | C[C@H](C(=O)NC1CCCCC1)[C@H]1CC[C@H]2[C@@H]3C(=O)C=C4C(C)(C)C(=O)C(C#N)=C[C@]4(C)[C@H]3CC[C@]12C | –
25 | 16.4 | CNC(=O)[C@@H](C)[C@H]1CC[C@H]2[C@@H]3C(=O)C=C4C(C)(C)C(=O)C(C#N)=C[C@]4(C)[C@H]3CC[C@]12C | –
26 | 15.1 | COc1ccc(NC(=O)C[C@@H](C)[C@H]2CC[C@H]3[C@@H]4C(=O)C=C5C(C)(C)C(=O)C(C#N)=C[C@]5(C)[C@H]4CC[C@]23C)cc1 | –
27 | 15 | C[C@H](C(=O)Nc1ccccc1O)[C@H]1CC[C@H]2[C@@H]3C(=O)C=C4C(C)(C)C(=O)C(C#N)=C[C@]4(C)[C@H]3CC[C@]12C | –
28 | 14.2 | C[C@H](C(=O)Nc1nccs1)[C@H]1CC[C@H]2[C@@H]3C(=O)C=C4C(C)(C)C(=O)C(C#N)=C[C@]4(C)[C@H]3CC[C@]12C | –
29 | 13.5 | C[C@H](C(=O)O)[C@H]1CC[C@H]2[C@@H]3C(=O)C=C4C(C)(C)C(=O)C(C#N)=C[C@]4(C)[C@H]3CC[C@]12C | Ratio IC50 [2]: 1.6; IC50 [3]: 4.25 µM; IC50 [4]: 3.16 µM; IC50 [5]: 2.63 µM; IC50 at 72 h [6]: > 100 µM; IC50 at 72 h [7]: > 100 µM; Ratio IC50 [8]: 1.2
30 | 12.8 | CCc1ccc(NC(=O)[C@@H](C)[C@H]2CC[C@H]3[C@@H]4C(=O)C=C5C(C)(C)C(=O)C(C#N)=C[C@]5(C)[C@H]4CC[C@]23C)cc1 | –
31 | 12.1 | C[C@H](C(=O)Nc1ccc2ncsc2c1)[C@H]1CC[C@H]2[C@@H]3C(=O)C=C4C(C)(C)C(=O)C(C#N)=C[C@]4(C)[C@H]3CC[C@]12C | –
32 | 11.6 | C[C@H](C(=O)Nc1ccc2cc[nH]c2c1)[C@H]1CC[C@H]2[C@@H]3C(=O)C=C4C(C)(C)C(=O)C(C#N)=C[C@]4(C)[C@H]3CC[C@]12C | –
33 | 10.8 | CCOc1ccc(NC(=O)[C@@H](C)[C@H]2CC[C@H]3[C@@H]4C(=O)C=C5C(C)(C)C(=O)C(C#N)=C[C@]5(C)[C@H]4CC[C@]23C)cc1 | –
34 | 10.4 | COc1ccccc1NC(=O)[C@@H](C)[C@H]1CC[C@H]2[C@@H]3C(=O)C=C4C(C)(C)C(=O)C(C#N)=C[C@]4(C)[C@H]3CC[C@]12C | –
35 | 9.65 | C[C@H](C(=O)Nc1cncnc1)[C@H]1CC[C@H]2[C@@H]3C(=O)C=C4C(C)(C)C(=O)C(C#N)=C[C@]4(C)[C@H]3CC[C@]12C | –
36 | 9.37 | COc1ccc(OC(=O)[C@@H](C)[C@H]2CC[C@H]3[C@@H]4C(=O)C=C5C(C)(C)C(=O)C(C#N)=C[C@]5(C)[C@H]4CC[C@]23C)cc1 | –
37 | 8.1 | C[C@H](C(=O)Oc1ccccc1)[C@H]1CC[C@H]2[C@@H]3C(=O)C=C4C(C)(C)C(=O)C(C#N)=C[C@]4(C)[C@H]3CC[C@]12C | –
38 | 7.61 | C[C@H](C(=O)Nc1ncco1)[C@H]1CC[C@H]2[C@@H]3C(=O)C=C4C(C)(C)C(=O)C(C#N)=C[C@]4(C)[C@H]3CC[C@]12C | –
39 | 7.06 | COc1cc(NC(=O)[C@@H](C)[C@H]2CC[C@H]3[C@@H]4C(=O)C=C5C(C)(C)C(=O)C(C#N)=C[C@]5(C)[C@H]4CC[C@]23C)cc(OC)c1 | –
40 | 6.95 | COc1cc(NC(=O)[C@@H](C)[C@H]2CC[C@H]3[C@@H]4C(=O)C=C5C(C)(C)C(=O)C(C#N)=C[C@]5(C)[C@H]4CC[C@]23C)cc(OC)c1OC | –
41 | 5.62 | C[C@H](C(=O)Nc1ccc2nccnc2c1)[C@H]1CC[C@H]2[C@@H]3C(=O)C=C4C(C)(C)C(=O)C(C#N)=C[C@]4(C)[C@H]3CC[C@]12C | –
42 | 5.43 | COc1cccc(NC(=O)[C@@H](C)[C@H]2CC[C@H]3[C@@H]4C(=O)C=C5C(C)(C)C(=O)C(C#N)=C[C@]5(C)[C@H]4CC[C@]23C)c1 | –
43 | 5.05 | C[C@H](C(=O)Nc1cccnc1)[C@H]1CC[C@H]2[C@@H]3C(=O)C=C4C(C)(C)C(=O)C(C#N)=C[C@]4(C)[C@H]3CC[C@]12C | –
44 | 3.88 | C[C@H](C(=O)n1ccnc1)[C@H]1CC[C@H]2[C@@H]3C(=O)C=C4C(C)(C)C(=O)C(C#N)=C[C@]4(C)[C@H]3CC[C@]12C | Ratio IC50 [2]: 3; IC50 [3]: 7.65 µM; IC50 [4]: 4.46 µM; IC50 [5]: 2.57 µM; IC50 at 72 h [6]: > 100 µM; IC50 at 72 h [7]: > 100 µM; Ratio IC50 [8]: 1.7
45 | 3.79 | C[C@H](C(=O)n1cccn1)[C@H]1CC[C@H]2[C@@H]3C(=O)C=C4C(C)(C)C(=O)C(C#N)=C[C@]4(C)[C@H]3CC[C@]12C | Ratio IC50 [2]: 5.7; IC50 [3]: 0.34 µM; IC50 [4]: 0.24 µM; IC50 [5]: 0.06 µM; IC50 at 72 h [6]: > 100 µM; IC50 at 72 h [7]: > 100 µM; Ratio IC50 [8]: 1.4
46 | 3.52 | C[C@H](C(=O)Nc1ccc(O)cc1)[C@H]1CC[C@H]2[C@@H]3C(=O)C=C4C(C)(C)C(=O)C(C#N)=C[C@]4(C)[C@H]3CC[C@]12C | Ratio IC50 [2]: 5; IC50 [3]: 2.45 µM; IC50 [4]: 0.57 µM; IC50 [5]: 0.49 µM; IC50 at 72 h [6]: > 100 µM; IC50 at 72 h [7]: > 100 µM; Ratio IC50 [8]: 4.3
